Results: patent US4859668A, “Method of inhibiting the growth of melanin-pigmented cells” (North Carolina State University, priority 1988, dated 1989)
Where two headings read alike, the source gives them in different places.

Key:
[1] = system: S91 melanoma; assay: Effects of Various Cyclic Amines on Growth of Pigmented Melanoma Cells (Table III), S91; type: cell-based, mouse; details: for inhibition at 13800 µM: Mus musculus, read-out: Percent Inhibition, S91 melanoma
Method: (§1) Pigmented S91 melanoma and unpigmented L929 fibroblast cells were treated with various cyclic amines at a concentration of 13.8 mM as described in Example 1 above.

[2] = system: L929 fibroblast; assay: Effects of Various Cyclic Amines on Growth of Pigmented Melanoma Cells (Table III), L929; type: cell-based, mouse; details: for inhibition at 13800 µM: Mus musculus, read-out: Percent Inhibition, L929 fibroblast
Method: as §1

[3] = system: melanin-pigmented cells; assay: In vitro selective inhibition of melanin-pigmented cells, effective dosage/time regimens; type: cell-based
[4] = system: S91 melanoma; assay: Effect of High Dose Exposure to Piperidino 1,2-Propanediol (Table V), S91; type: cell-based, mouse; details: 30 min. exposure
Source text: (§2) Pigmented S91 melanoma and nonpigmented L929 fibroblast cells were exposed to high doses of piperidino 1,2-propanediol.

[5] = system: L929 fibroblast; assay: Effect of High Dose Exposure to Piperidino 1,2-Propanediol (Table V), L929; type: cell-based, mouse; details: 30 min. exposure
Source text: as §2

[6] = system: HFH-LP; assay: Effect of Cyclic Amines on Growth Rate of Pigmented Melanoma (Table I), HFH-LP; type: cell-based, mouse
Method: (§3) These cell cultures include low passage HFH (HFH-LP), a pigmented line derived from the B-16 mouse melanoma, and NP, an amelanotic clone of HFH-LP. […] These cells were maintained as monolayers in Corning plastic flasks in Minimum Essential Medium (Eagle) with Earle's salts supplemented with 10% fetal bovine serum, 100 units of penicillin, 100 mg of streptomycin and 5 mg of amphotericin B per ml in 5% CO2 humidified air at 37° C.
(§4) Prior to dose-response studies, single cell suspensions were prepared in medium following trypsinization and inoculated into Falcon Multiwell plates (2 cm^2 wells) at 3.5×10^4 cells per 0.5 ml of medium. Cultures were maintained for 24 hours before exposure.
(§5) This stock solution was used to prepare test concentrations of the drug in culture medium. […] Cells were exposed to each of these concentrations by adding 0.5 ml of each of the solutions to triplicate test wells and incubating the cells under exposure at 37° C. for 1 hour. […] Cells were harvested after 48 hours and counted with a hemacytometer.

[7] = system: NP; assay: cells; details: Mus musculus, 1.5 h, read-out: Effect on Growth Rate (inhibition), NP
Method: as §3, §4, §5

[8] = in vitro; details: mouse, l929 cells
Method: (§6) These cells were maintained as monolayers in Corning plastic flasks in Minimum Essential Medium (Eagle) with Earle's salts supplemented with 10% fetal bovine serum, 100 units of penicillin, 100 mg of streptomycin and 5 mg of amphotericin B per ml in 5% CO2 humidified air at 37° C.
as §4, §5

[9] = system: S91 (Cloudman S91 mouse melanoma); assay: Effect of Cyclic Amines on Survival of Pigmented Melanoma (Table II), S91; details: 24 h, read-out: percentage dead, S91
Method: as §6, §4, §5

[10] = system: HFH-LP; assay: Effect of Cyclic Amines on Survival of Pigmented Melanoma (Table II), HFH-LP; details: Mus musculus, 24 h, read-out: percentage dead, HFH-LP
Method: as §6, §4, §5

[11] = S91, 1 Hour Exposure to 13.8 mM
[12] = L929, 1 Hour Exposure to 13.8 mM

Q: What does the source list for CN1CCN(C)CC1 [1,4-dimethylpiperazine]?
A: inhibition at 13800 µM [1, 11]: 99%; inhibition at 13800 µM [2, 12]: 0%; in vitro effectiveness of dosage/time regimen ([3]; 13.8 mM for 1 hour): effective in vitro for inhibiting the growth of melanin-pigmented cells with little or no effect upon unpigmented cells

Q: Which inhibition at 13800 µM [1, 11] does the source give for c1cc(N2CCCCC2)ccn1 [4-piperidinopyridine] here?
A: 99%

Q: What about the inhibition at 13800 µM [2, 12] of the same compound?
A: 14%

Q: And the “in vitro effectiveness of dosage/time regimen” value ([3]; 13.8 mM for 1 hour)?
A: effective in vitro for inhibiting the growth of melanin-pigmented cells with little or no effect upon unpigmented cells

Q: And the “in vitro effectiveness of dosage/time regimen” value ([3]; 35 mM for 30 minutes)?
A: effective in vitro for inhibiting the growth of melanin-pigmented cells with little or no effect upon unpigmented cells

Q: For c1ccncc1 [Pyridine, reference compound], which inhibition at 13800 µM ([1]; S91, 1 h) is on record?
A: 0%

Q: What about the inhibition at 13800 µM ([2]; L929, 1 h) of the same compound?
A: 0%

Q: Which inhibition at 13800 µM [1, 11] does the source give for CN1CCCCC1 [1-methylpiperidine] here?
A: 99%

Q: And the inhibition at 13800 µM [2, 12]?
A: 4%

Q: What about the “in vitro effectiveness of dosage/time regimen” value ([3]; 13.8 mM for 1 hour) of the same compound?
A: effective in vitro for inhibiting the growth of melanin-pigmented cells with little or no effect upon unpigmented cells

Q: With “piperidino 1,2-propanediol [piperidino1,2-propanediol]” as the compound, how does the “Percent Inhibition, S91 melanoma” value ([1]; 1 Hour Exposure to 13.8 mM) read?
A: 46%

Q: And the “Percent Inhibition, L929 fibroblast” value ([2]; 1 Hour Exposure to 13.8 mM)?
A: 1%

Q: What about the “% inhibition, S91 melanoma” value ([4]; 13.8 mM) of the same compound?
A: 16%

Q: And the “% inhibition, S91 melanoma” value ([4]; 34.5 mM)?
A: 44%

Q: What about the “% inhibition, S91 melanoma” value ([4]; 69 mM) of the same compound?
A: 81%

Q: And the “% inhibition, S91 melanoma” value ([4]; 138 mM)?
A: 91%

Q: And the “% inhibition, L929 fibroblast” value ([5]; 13.8 mM)?
A: 0%

Q: What about the “% inhibition, L929 fibroblast” value ([5]; 34.5 mM) of the same compound?
A: 7%

Q: What about the “% inhibition, L929 fibroblast” value ([5]; 69 mM) of the same compound?
A: 10%

Q: And the “% inhibition, L929 fibroblast” value ([5]; 138 mM)?
A: 19%

Q: And the “in vitro effectiveness of dosage/time regimen” value ([3]; 13.8 mM for 1 hour)?
A: effective in vitro for inhibiting the growth of melanin-pigmented cells with little or no effect upon unpigmented cells

Q: What about the “in vitro effectiveness of dosage/time regimen” value ([3]; 35 mM for 30 minutes) of the same compound?
A: effective in vitro for inhibiting the growth of melanin-pigmented cells with little or no effect upon unpigmented cells

Q: Which results are given for CCN1CCOCC1 [N--ethylmorpholine, reference compound]?
A: inhibition at 13800 µM [1, 11]: 0%; inhibition at 13800 µM [2, 12]: 0%

Q: For CC1CNC(C)CN1 (stereo not shown) [2,5-dimethylpiperazine], which inhibition at 13800 µM [1, 11] is on record?
A: 97%

Q: And the inhibition at 13800 µM [2, 12]?
A: 0%

Q: What about the “in vitro effectiveness of dosage/time regimen” value ([3]; 13.8 mM for 1 hour) of the same compound?
A: effective in vitro for inhibiting the growth of melanin-pigmented cells with little or no effect upon unpigmented cells

Q: Which inhibition at 13800 µM [1, 11] does the source give for CN1CCOCC1 [N--methylmorpholine, reference compound] here?
A: 0%

Q: What about the inhibition at 13800 µM [2, 12] of the same compound?
A: 0%

Q: What does the source list for C1CNCCN1 [piperazine]?
A: inhibition at 13800 µM ([6]; Mus musculus, 13.8 mM for 1.5 hr, mean ± S.E., 6 replicates, read-out: Effect on Growth Rate (inhibition), HFH-LP): 24 ± 9%; inhibition of pigmented cell line HFH-LP (in words) ([6]; not as effective as morpholine at the dosage tested): selectively inhibitory to the pigmented cell line HFH-LP, although not as effective as morpholine; inhibition at 13800 µM [1, 11]: 70%; inhibition at 13800 µM [2, 12]: 0%; in vitro effectiveness of dosage/time regimen ([3]; 13.8 mM for 1 hour): effective in vitro for inhibiting the growth of melanin-pigmented cells with little or no effect upon unpigmented cells; inhibition at 13800 µM [7]: 0%; cytotoxicity at 24 h, 13800 µM [8]: -101%; cytotoxicity at 13800 µM [9]: 46 ± 5%; cytotoxicity at 13800 µM [10]: -44 ± 4%

Q: Which results are given for CN1CCNCC1 [1-methylpiperazine]?
A: inhibition at 13800 µM [1, 11]: 99%; inhibition at 13800 µM [2, 12]: 0%; in vitro effectiveness of dosage/time regimen ([3]; 13.8 mM for 1 hour): effective in vitro for inhibiting the growth of melanin-pigmented cells with little or no effect upon unpigmented cells
